For 1 substance, MBC and MIC results are on record in patent publication US12569534B2, “Therapeutic nanoparticles by coacervate complexation and their use for treating bacteria” (priority 2018, dated 2026).

The subject of the data set is E. Coli ATCC 25922. Nature of the data set: MIC and MBC of different treatments, Example 3. Type of data set: cell-based. Here is the method: Reference bacterial stains were purchased from ATCC. Clinical isolates of carbapenem-resistant bacteria were obtained from National Health Research Institutes (NHRI) and Tri-Service General Hospital (TSGH). MIC is defined as the lowest concentration of antibiotics required to inhibit the growth of bacteria. MBC is defined as the lowest concentration of antibiotics required to eradicate microorganisms. The MICs of CS and the CS NPs were determined using a broth microdilution method. Bacterial suspensions were adjusted to a turbidity of McFarland 0.5±0.05 and cultured overnight with different concentrations of CS or CS NPs. A control group without antimicrobial treatment was prepared as a reference. Following overnight incubation, solution turbidity was determined by visual inspection. Culture wells with no observable turbidity were further sub-cultured for MBC evaluation. Solutions from the clear wells were deposited onto an agar plate and cultured overnight to determine the MBCs.

{Cy5} = Cy5 fluorescent dye; d = 2'-deoxy (DNA); m = 2'-O-methyl A value given as a limit tells only on which side of the number the result lay.

Regarding “ASOftsZ: antisense oligonucleotide of ftsZ DNA fragment; Cy5-mCmCmAmU-TG-GTT-CAA-A-mCmAmUmA, m_: 2′ O-methyl bases (antisense CCAUTGGTTCAAACAUA; sugars from the 5' end m4 d9 m4, 5' {Cy5}, backbone and methylation of C not given here)”, the MBC is above 2 µg/mL and the MIC was above 2 µg/mL.
